From PubChem BioAssay (NCI) come the findings set out here.

Molecules are shown by their SMILES.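 Step 1: Grow cells in 96-well plates. Step 2: Expose to compound for 48 hours at 5 concentrations. Step 3: Interpolate endpoints linearly; if unreached, use highest concentration. GI50 marks 50% less growth. TGI is the concentration that stops growth completely.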

Among the test systems are M14 melanoma; MCF7 breast; NCI-H226 lung; HL-60(TB) leukemia; HOP-62 NSCLC; RXF 393 renal; MDA-MB-435; SR leukemia; HCT-15 colon; T-47D breast; NCI-H23 lung.
What all share (assay): NCI tumour cell line growth inhibition, 48 h

Regarding `COc1ccc2oc(=O)c(-c3csc(C)n3)cc2c1`, the TGI with M14 melanoma was over 100 µM; in the assay with MCF7 breast, over 100 µM; in the assay on NCI-H226 lung, 89.1 µM; in the assay on HL-60(TB) leukemia, over 100 µM; in the assay on HOP-62 NSCLC, 84 µM; in the assay with RXF 393 renal it was over 100 µM. In addition, the TGI in the assay with MDA-MB-435, in the assay with SR leukemia and with HCT-15 colon was over 100 µM in each case.
In the case of `Cc1ccccc1NC(=O)Cc1csc2[n+]1C(=O)/C(=C/c1ccc([N+](=O)[O-])cc1)S2`, the TGI in the assay with M14 melanoma, with MCF7 breast, in the assay on NCI-H226 lung, with HL-60(TB) leukemia, with T-47D breast and in the assay on HOP-62 NSCLC was over 100 µM throughout. For the same molecule, the results for the TGI in the assay with NCI-H23 lung, in the assay with MDA-MB-435 and with HCT-15 colon were 84.3 µM, over 100 µM and over 100 µM, respectively.
As to `c1cnc(N2CCN(Cc3c[nH]c4ccccc34)CC2)nc1`, the TGI with M14 melanoma is over 100 µM; with MCF7 breast, 53.7 µM; in the assay on NCI-H226 lung, over 100 µM; in the assay with HL-60(TB) leukemia it was over 100 µM; in the assay on T-47D breast, 72.2 µM; with HOP-62 NSCLC, over 100 µM. Also, the TGI with RXF 393 renal, in the assay with NCI-H23 lung, with MDA-MB-435 and in the assay on HCT-15 colon was over 100 µM throughout.
Turning to `Cc1nc2ccccc2c(/C=C/c2ccc(Cl)cc2)c1C(=O)/C=C/c1ccc(Cl)cc1`, the GI50 in the assay with NCI-H226 lung is 1.59 µM; with HL-60(TB) leukemia, 1460 nM; in the assay with RXF 393 renal it was 1520 nM; in the assay with SR leukemia it was 0.609 µM; in the assay on HCT-15 colon, 0.787 µM. Besides, the TGI with NCI-H226 lung was 3.29 µM; in the assay with HL-60(TB) leukemia, 4.37 µM; with RXF 393 renal it was 3 µM; with SR leukemia it was over 100 µM; in the assay with HCT-15 colon it was 3.13 µM.
With `O=C(NC(=S)NC(=O)c1cc(O)c(O)c(O)c1)c1cc(O)c(O)c(O)c1`, the TGI with M14 melanoma was 98.6 µM; in the assay on MCF7 breast it was over 100 µM; in the assay on NCI-H226 lung, over 100 µM; with RXF 393 renal it was 41.5 µM; with NCI-H23 lung it was 55.4 µM; with MDA-MB-435, 24.7 µM. Moreover, the TGI in the assay on SR leukemia is over 100 µM; with HCT-15 colon, 67.8 µM.
`C[C@H](C/C=C/C(C)(C)O)[C@H]1CC[C@@]2(C)[C@@H]3CC[C@H]4C(C)(C)[C@@H](O)CC[C@@]45C[C@@]35CC[C@]12C`: the TGI in the assay on M14 melanoma was 44.5 µM; with MCF7 breast, over 100 µM; in the assay with NCI-H226 lung, 38.5 µM; in the assay with T-47D breast, 49.7 µM; in the assay on HOP-62 NSCLC it was 33.6 µM; in the assay on MDA-MB-435, 50.7 µM. In the assay on HCT-15 colon, this molecule came in with a TGI of 83.1 µM.
Regarding `O=c1cnn(CCOCP(=O)(O)O)c(=O)[nH]1`, the TGI in the assay on M14 melanoma, in the assay on MCF7 breast, in the assay with NCI-H226 lung, in the assay with T-47D breast, in the assay on HOP-62 NSCLC and in the assay on RXF 393 renal was over 100 µM each time. Besides, the TGI with NCI-H23 lung and in the assay on MDA-MB-435 was over 100 µM throughout.
In the case of `CCOC(=O)C1=COC(C)(CCc2ccccc2)CC1=O` (stereo unspecified), the TGI in the assay on M14 melanoma, in the assay with MCF7 breast, with T-47D breast, in the assay on HOP-62 NSCLC, in the assay on RXF 393 renal and in the assay with NCI-H23 lung was over 100 µM in each case. For the same molecule, the TGI in the assay on MDA-MB-435 and with HCT-15 colon was over 100 µM each time.
With `CC(=O)[CH-]C(=O)c1ccccc1.CC(=O)[CH-]C(=O)c1ccccc1.C[C@]12CCC(=O)C=C1CC[C@@H]1C2CC[C@@]2(C)C1CC[C@]2(C)[O-].C[C@]12CCC(=O)C=C1CC[C@@H]1C2CC[C@@]2(C)C1CC[C@]2(C)[O-].Cl.[Ti+4]` (stereo partly specified), the GI50 was 24.2 µM in the assay with M14 melanoma; 14.4 µM in the assay on NCI-H226 lung; 2870 nM in the assay with HL-60(TB) leukemia; 24.1 µM in the assay on HOP-62 NSCLC; 14.2 µM in the assay with NCI-H23 lung; 6.49 µM in the assay on HCT-15 colon. In addition, the TGI in the assay on M14 melanoma is 83.6 µM; in the assay with NCI-H226 lung, 56.1 µM; with HL-60(TB) leukemia, 13.1 µM; in the assay with HOP-62 NSCLC, 62.7 µM; with NCI-H23 lung, 35.2 µM; with HCT-15 colon it was 52.4 µM.
On to `CN(C)c1cc[n+](-c2nc(/N=C(\[O-])C(F)(F)F)nc3c2ncn3C2CC(O)C(CO)O2)cc1` (stereo unspecified), for which the TGI in the assay with M14 melanoma, in the assay on MCF7 breast, with NCI-H226 lung, in the assay on HL-60(TB) leukemia, in the assay with T-47D breast and in the assay on HOP-62 NSCLC was over 100 µM in each case. In addition, the TGI in the assay with RXF 393 renal, in the assay with NCI-H23 lung, in the assay on MDA-MB-435 and in the assay with HCT-15 colon was over 100 µM throughout.
As to `CC(=O)N(O)c1ccc(-c2nc3ccccc3s2)cc1`, the TGI in the assay on M14 melanoma was over 100 µM; in the assay with NCI-H226 lung, 73.2 µM; with T-47D breast, over 100 µM; with HOP-62 NSCLC, over 100 µM; with RXF 393 renal, over 100 µM; with NCI-H23 lung, over 100 µM. Further, the TGI with MDA-MB-435, with SR leukemia and with HCT-15 colon was over 100 µM in each case.
Turning to `O=C1C(CN2CCOCC2)CCCC1CN1CCOCC1` (stereo unspecified), the TGI in the assay on M14 melanoma is 7.1 µM; in the assay with MCF7 breast, 1.57 µM; in the assay on NCI-H226 lung it was 40.3 µM; with HL-60(TB) leukemia, 1.78 µM; in the assay on HOP-62 NSCLC, over 100 µM; in the assay on RXF 393 renal, 4.14 µM. The TGI in the assay with NCI-H23 lung is 16.9 µM; in the assay on MDA-MB-435 it was 27.5 µM; in the assay with SR leukemia, over 100 µM; in the assay on HCT-15 colon, 3.2 µM.
Regarding `CC(C)(C)OC(=O)NCCCCC(NC(=O)c1ccccc1)C(N)=O` (stereo unspecified), the TGI with M14 melanoma, with MCF7 breast, in the assay with T-47D breast, in the assay with HOP-62 NSCLC, in the assay on RXF 393 renal and in the assay with NCI-H23 lung was over 100 µM in each case. Besides, the TGI in the assay with MDA-MB-435 and in the assay with HCT-15 colon was over 100 µM throughout.
For the molecule `CSC1NC(c2ccc(Cl)cc2)=C(C#N)C(=O)N1C1OCC(OC(C)=O)C(OC(C)=O)C1OC(C)=O` (stereo unspecified), the TGI with M14 melanoma, in the assay with MCF7 breast, in the assay with NCI-H226 lung, with HOP-62 NSCLC, with NCI-H23 lung and in the assay on MDA-MB-435 was over 100 µM in each case. Also, the TGI with SR leukemia and in the assay on HCT-15 colon was over 100 µM throughout.
With `COc1cc(C2c3cc4c(cc3OC(NCCO)C2C)OCO4)cc(OC)c1OC` (stereo unspecified), the TGI was over 45 µM with M14 melanoma; over 100 µM in the assay on MCF7 breast; 9.84 µM with NCI-H226 lung; over 100 µM in the assay on T-47D breast; 9.03 µM with HOP-62 NSCLC; over 100 µM with RXF 393 renal. Also, the TGI with NCI-H23 lung was over 100 µM; in the assay on MDA-MB-435, 0.463 µM; in the assay with HCT-15 colon, over 34.8 µM.
On to `NC(Cc1ccc(S(=O)(=O)O)cc1)C(=O)NC(Cc1ccc(S(=O)(=O)O)cc1)C(=O)O` (stereo unspecified), for which the TGI in the assay with M14 melanoma, with MCF7 breast, with NCI-H226 lung, in the assay with HL-60(TB) leukemia, in the assay with T-47D breast and in the assay with HOP-62 NSCLC was over 100 µM throughout. The TGI in the assay on RXF 393 renal, with NCI-H23 lung, with MDA-MB-435 and with HCT-15 colon was over 100 µM in each case.
As for `O=C1Nc2ccccc2Nc2ccncc21`, the TGI in the assay on MCF7 breast, with NCI-H226 lung, in the assay with HL-60(TB) leukemia, with HOP-62 NSCLC, in the assay with RXF 393 renal and with NCI-H23 lung was over 100 µM each time. The molecule further returned a TGI in the assay on HCT-15 colon of over 100 µM.
With `O=C(CCc1ccccc1)ON1C(=S)C(c2ccccc2)(c2ccccc2)N=C1Sc1ccccc1`, the TGI in the assay with M14 melanoma, in the assay on MCF7 breast, in the assay on NCI-H226 lung, in the assay with HL-60(TB) leukemia, in the assay with T-47D breast and in the assay on HOP-62 NSCLC was over 100 µM throughout. For the same molecule, the TGI with RXF 393 renal, with NCI-H23 lung and in the assay on HCT-15 colon was over 100 µM throughout.
With `CCOC(=O)C1=C(C)N(c2ccc(OC)cc2)C2(O)C=CC(=O)C3=C(O)c4ccccc4C(=O)C312` (stereo unspecified), the TGI is 21.8 µM in the assay with M14 melanoma; 19.2 µM in the assay with MCF7 breast; 21.6 µM in the assay with HL-60(TB) leukemia; 32.7 µM with T-47D breast; 30.1 µM in the assay on HOP-62 NSCLC; 37.4 µM with NCI-H23 lung. Also, the TGI in the assay on MDA-MB-435 turned out to be 18.7 µM; in the assay on HCT-15 colon, 20.9 µM.
Consider `CC(C)C1N(C)c2ccc(Cl)cc2[C@H]2c3ccccc3CCN12` (stereo partly specified), for which the TGI was over 100 µM with M14 melanoma; over 100 µM in the assay on MCF7 breast; 67.9 µM in the assay on NCI-H226 lung; over 100 µM with HL-60(TB) leukemia; over 100 µM in the assay with HOP-62 NSCLC; over 100 µM with RXF 393 renal. Further, the TGI in the assay with NCI-H23 lung is over 100 µM; in the assay with MDA-MB-435, 61.6 µM; with SR leukemia it was over 100 µM; with HCT-15 colon, over 100 µM.
Consider `COc1ccc2c(OCc3nnc4ccc(-c5ccccc5)nn34)ccnc2c1`, for which the GI50 is over 100 µM in the assay with M14 melanoma; over 100000 nM with HL-60(TB) leukemia; over 100 µM in the assay with NCI-H23 lung; over 100 µM in the assay with MDA-MB-435; 5.64 µM in the assay with SR leukemia; over 100 µM with HCT-15 colon. Moreover, the TGI in the assay on M14 melanoma, with HL-60(TB) leukemia, in the assay with NCI-H23 lung, in the assay with MDA-MB-435, in the assay with SR leukemia and in the assay on HCT-15 colon was over 100 µM each time.
